One experiment has as its system FRDA lymphocytes. The experiment can be described thus: Suppression of lipid peroxidation (C11-BODIPY581/591, FACS) in FRDA lymphocytes treated with diethyl maleate. Format: cell-based. Particulars: Lymphocyte, DEM, read-out: Scavenging activity (%), suppression of lipid peroxidation. An outline of the steps:
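Cells (5×10^5/mL) given compound at 5 and 10 μM for 16 h at 37° C, loaded with 1 μM C11-BODIPY581/591 for 30 min, then stressed with 5 mM DEM for 2 h. Probe oxidation read by FACS.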

Experiment [1] relates to Friedreich's ataxia lymphoblast cell line GM15850. Put plainly: Cytoprotection (trypan blue exclusion assay) of DEM-treated FRDA lymphocytes. Particulars: Homo sapiens, GM15850, DEM alone 18 ± 10% viability, read-out: Cytoprotection (cell viability, % of untreated control). Format: cell-based. An outline of the steps:
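GM15850 FRDA lymphoblasts at 5×10^5 cells/mL pre-incubated with test compounds for 17 h at 37 °C, then exposed to 5 mM DEM to deplete GSH. Viability by 0.4% trypan blue exclusion, ≥500 cells counted per group, expressed as % of non-DEM control; means±S.E.M., n=3.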

Experiment [2] relates to NADH oxidase (complexes I, III and IV). Put plainly: NADH oxidase activity (complexes I, III and IV) in submitochondrial particles. Format: biochemical, bovine.

For the compound `CCCCCCCCCCCCCC1=C(OC)C(=O)C=C(NCCCC(=O)OC(C)(C)C)C1=O` [Compound 7, tert-butyl 4-(4-methoxy-3,6-dioxo-5-tridecylcyclohexa-1,4-dienylamino)butanoate], in the experiment on FRDA lymphocytes, the inhibition at 5 µM worked out at 72 ± 1.8% and the inhibition at 10 µM came out at 86%. Besides, in experiment [1], the viability at 0.5 µM was found to be 80%, the viability at 1 µM was determined as 80%, the viability at 2.5 µM amounted to 84 ± 5% and the viability at 5 µM was found to be 93 ± 4%. The “NADH oxidase activity (Complex I, III, IV) %” value in experiment [2] (1 μM) stood at 84 ± 1.0%. Besides, the “NADH oxidase activity (Complex I, III, IV) %” value in experiment [2] (5 μM) worked out at 77 ± 4.0%.

`CCCCCCCCCCCCCC1=C(OC)C(=O)C(C)=C(NCCCC(=O)OCCCCCC)C1=O` [Compound 49, Hexyl 4-(4-methoxy-2-methyl-3,6-dioxo-5-tridecylcyclohexa-1,4-dienylamino)butanoate]: in the experiment on FRDA lymphocytes, the inhibition at 5 µM is 8 ± 3% and the inhibition at 10 µM came out at 13 ± 3%. Also, in experiment [1], the viability at 1 µM turned out to be 16 ± 4% and the viability at 5 µM was 87 ± 4%. Further, in experiment [2] (1 μM), the “NADH oxidase activity (Complex I, III, IV) %” value is reported as 74 ± 2^ %. Also, the “NADH oxidase activity (Complex I, III, IV) %” value in experiment [2] (5 μM) was 83 ± 2^ %. Moreover, the “NADH oxidase activity (Complex I, III, IV) %” value in experiment [2] (10 μM) came to 74 ± 2%.

Turning to `COC1=C2CCCCCCCCCCCCCCCNC(=CC1=O)C2=O` [Compound 40], the inhibition at 1 µM in the experiment on FRDA lymphocytes (1 μM) was found to be 29 ± 4.7%. For the same compound, in the experiment on FRDA lymphocytes, the inhibition at 5 µM stood at 72% and the inhibition at 10 µM is 83%. For the same compound, the viability at 0.1 µM in experiment [1] (0.1 μM) worked out at 36 ± 4.3%. In experiment [1], the viability at 0.5 µM was determined as 69 ± 2.3%, the viability at 2.5 µM was 83% and the viability at 5 µM worked out at 92 ± 3.5%. Further, the “NADH oxidase activity (Complex I, III, IV) %” value in experiment [2] (1 μM) is 95 ± 3^ %. In addition, the “NADH oxidase activity (Complex I, III, IV) %” value in experiment [2] (5 μM) was 85 ± 1^ %. The “NADH oxidase activity (Complex I, III, IV) %” value in experiment [2] (10 μM) is given as 70 ± 1%.

For the compound `CCCCCCCCCCCCCC1=C(OC)C(=O)C(C)=C(NCCCC(=O)OC(C)(C)C)C1=O` [Compound 43, tert-butyl 4-(4-methoxy-2-methyl-3,6-dioxo-5-tridecylcyclohexa-1,4-dienylamino)butanoate], the inhibition at 5 µM in the experiment on FRDA lymphocytes worked out at 61 ± 4%. The inhibition at 10 µM with FRDA lymphocytes turned out to be 75 ± 2%. Moreover, the viability at 1 µM in experiment [1] was found to be 67 ± 5%. In experiment [1], the viability at 5 µM was 91 ± 6%. Further, the “NADH oxidase activity (Complex I, III, IV) %” value was 87 ± 2^ % in experiment [2] (1 μM), 85 ± 1^ % in experiment [2] (5 μM) and 80 ± 1% in experiment [2] (10 μM).

With `CCCCCCCCCCCCCC1=C(OC)C(=O)C(C)=C(NCCCC(=O)OCCCC)C1=O` [Compound 46, Butyl 4-(4-methoxy-2-methyl-3,6-dioxo-5-tridecylcyclohexa-1,4-dienylamino)butanoate], the inhibition at 5 µM in the experiment with FRDA lymphocytes came to 60 ± 1%. In addition, the inhibition at 10 µM with FRDA lymphocytes amounted to 70 ± 3%. Besides, in experiment [1], the viability at 1 µM was determined as 63 ± 4%. Moreover, in experiment [1], the viability at 5 µM is 95 ± 3%. The “NADH oxidase activity (Complex I, III, IV) %” value in experiment [2] (1 μM) is given as 86 ± 2^ %; in experiment [2] (5 μM) it was 84 ± 4^ %; in experiment [2] (10 μM), 68 ± 1%.

In the case of `CCCCCCCCCCCCCC1=C(OC)C(=O)C=C(NCCCC(=O)OCCCCCC)C1=O` [Compound 18, Hexyl 4-(4-methoxy-3,6-dioxo-5-tridecylcyclohexa-1,4-dienylamino)butanoate], the inhibition at 5 µM with FRDA lymphocytes stood at 81 ± 1.6%. Also, the inhibition at 10 µM in the experiment with FRDA lymphocytes was 98%. Moreover, in experiment [1], the viability at 5 µM was found to be 90 ± 2%. Moreover, the “NADH oxidase activity (Complex I, III, IV) %” value in experiment [2] (1 μM) was determined as 54 ± 5.0%; in experiment [2] (5 μM) it was 27 ± 3.0%.

`CCCCCCCCCCCCCC1=C(NCCCC(=O)OCCCCCC)C(=O)C(C)=C(NCCCC(=O)OCCCCCC)C1=O` [Compound 50, 2,5-bis(hexyl 4-aminobutanoate)-3-methyl-6-tridecylcyclohexa-2,5-diene-1,4-dione]: in the experiment with FRDA lymphocytes, the inhibition at 5 µM was found to be 18 ± 1% and the inhibition at 10 µM turned out to be 23 ± 4%. Moreover, in experiment [1], the viability at 1 µM came out at 11 ± 2% and the viability at 5 µM came out at 91 ± 3%. Besides, the “NADH oxidase activity (Complex I, III, IV) %” value in experiment [2] (1 μM) is reported as 85 ± 1^ %. The “NADH oxidase activity (Complex I, III, IV) %” value in experiment [2] (5 μM) is recorded as 78 ± 6^ %. In experiment [2] (10 μM), the “NADH oxidase activity (Complex I, III, IV) %” value stood at 70 ± 3%.

These data come from patent US9957214B2, “Multifunctional radical quenchers” (ARIZONA BOARD OF REGENTS ON BEHALF OF ARIZONA STATE …, priority 2012, dated 2018).
